Values after ≈ are worked out from the molar mass of the structure shown. Values joined by “and” are separate entries in the source; they are usually repeats but may differ in a detail not shown here. Equal values may be shown once.
Columns and labels:
Test in all cases: ≥ marks a high value that may be exact or a test limit, other limits are often not marked, values filed in µg/mL are converted to µM
[1] = test system: Klebsiella pneumoniae ATCC 700603
[2] = test system: Enterococcus faecium ATCC 700221
[3] = test system: Vibrio anguillarum serotype O1
[4] = test system: Staphylococcus aureus IFO 12732
[5] = test system: Vibrio parahaemolyticus BCRC 10806
[6] = test system: Pseudomonas aeruginosa IFO 12582
[7] = test system: Escherichia coli BCRC 10675
[8] = test system: Vibrio alginolyticus BCRC 12829
[9] = test system: Listeria monocytogenes BCRC 14845
[10] = test system: Streptococcus equinus BCRC 14729
[11] = test system: Escherichia coli IFO 12734
Vibrio harveyi = test system: Vibrio harveyi
[12] = test system: Escherichia coli ATCC 25922
[13] = test system: Klebsiella aerogenes BCRC 10370
[14] = test system: Staphylococcus xylosus BCRC 12930
[15] = test system: Klebsiella oxytoca BCRC 13985
[16] = test system: Pseudomonas aeruginosa ATCC 27583
[17] = test system: Staphylococcus aureus BCRC 10781
[18] = test system: Acinetobacter baumannii ATCC BAA-747
Lactococcus garvieae = test system: Lactococcus garvieae
[19] = test system: Yersinia enterocolitica BCRC 13999
Vibrio parahaemolyticus = test system: Vibrio parahaemolyticus
Vibrio alginolyticus = test system: Vibrio alginolyticus
[20] = test system: Staphylococcus aureus ATCC 43300
[21] = test system: Enterobacter cloacae BCRC 10401
[22] = test system: Bacillus subtilis IFO 3134
[23] = test system: Staphylococcus aureus BCRC 10780
[24] = test system: Pseudomonas aeruginosa BCRC 10944
Streptococcus iniae = test system: Streptococcus iniae
[25] = test system: Trypanosoma brucei brucei GUT Tat3.1
[26] = test system: Trichophyton mentagrophytes IFO 5466
[27] = test system: Staphylococcus aureus KO-4
[28] = test system: Staphylococcus aureus ATCC 6538P
Pseudomonas aeruginosa = test system: Pseudomonas aeruginosa
[29] = test system: Latilactobacillus curvatus 89
[30] = test system: Weissella viridescens NCDO 1655
[31] = test system: Latilactobacillus sakei NCDO 2714
[32] = test system: Carnobacterium maltaromaticum UI49
[33] = test system: Lactiplantibacillus plantarum UI50
[34] = test system: Pediococcus pentosaceus Pac1.0
[35] = test system: Latilactobacillus sakei 706
[36] = test system: Pediococcus acidilactici CH
[37] = test system: Lacticaseibacillus casei NCDO 2713
[38] = test system: Lacticaseibacillus casei subsp. casei NCDO 161
[39] = test system: Pediococcus pentosaceus NCDO 990
[40] = test system: Candida albicans ATCC 10231
[41] = test system: Bacillus subtilis ATCC 62037
[42] = test system: Salmonella enterica subsp. enterica serovar Enteritidis ATCC 13076
[43] = test system: Pseudomonas putida ATCC 17426
[44] = test system: Staphylococcus aureus ATCC 15752
[45] = test system: Saccharomyces cerevisiae ATCC 44774
[46] = test system: Streptococcus mutans ATCC 25175
[47] = test system: Escherichia coli ATCC 27325
[48] = test system: Cryptococcus neoformans ATCC 34881

SMILES: CC[C@H](C)[C@H](NC(=O)CN)C(=O)NCC(=O)N[C@@H](CCCCN)C(=O)N[C@@H](Cc1ccccc1)C(=O)N[C@@H](CC(C)C)C(=O)N[C@@H](Cc1cnc[nH]1)C(=O)N[C@@H](CO)C(=O)N[C@@H](C)C(=O)N[C@@H](CCCCN)C(=O)N[C@@H](CCCCN)C(=O)N[C@@H](Cc1c[nH]c2ccccc12)C(=O)NCC(=O)N[C@@H](CCCCN)C(=O)N[C@@H](C)C(=O)N[C@@H](Cc1ccccc1)C(=O)N[C@H](C(=O)NCC(=O)N[C@@H](CCC(=O)O)C(=O)N[C@H](C(=O)N[C@@H](CCSC)C(=O)N[C@@H](CC(N)=O)C(=O)N[C@@H](CO)C(N)=O)[C@@H](C)CC)C(C)C [GIGKFLHSAKKWGKAFVGEIMNS]
- MIC [1]: 64 µM (≈ 160 µg/mL)
- MIC [2]: 16 µM (≈ 40.1 µg/mL)
- MIC [3]: 3.19 µM (≈ 8 µg/mL)
- MIC [4]: 9.98 µM (≈ 25 µg/mL)
- MIC [5]: ≥ 51.1 µM
- MIC [6]: 9.98 µM (≈ 25 µg/mL)
- MIC [7]: 25.5 µM (≈ 64 µg/mL)
- MIC [8]: ≥ 51.1 µM
- MIC [9]: ≥ 51.1 µM
- MIC [10]: ≥ 51.1 µM
- MIC [11]: 4.79 µM (≈ 12 µg/mL)
- MIC (Vibrio harveyi): ≥ 51.1 µM
- MIC [12]: 8 µM (≈ 20 µg/mL)
- MIC [13]: ≥ 51.1 µM
- MIC [14]: ≥ 51.1 µM
- MIC [15]: 25.5 µM (≈ 64 µg/mL)
- MIC [16]: ≥ 32 µM
- MIC [17]: ≥ 51.1 µM
- MIC [18]: 8 µM (≈ 20 µg/mL)
- MIC (Lactococcus garvieae): 12.8 µM (≈ 32 µg/mL)
- MIC [19]: ≥ 51.1 µM
- MIC (Vibrio parahaemolyticus): 1.6 µM (≈ 4 µg/mL)
- MIC (Vibrio alginolyticus): ≥ 51.1 µM
- MIC [20]: > 128 µM
- MIC [21]: 12.8 µM (≈ 32 µg/mL)
- MIC [22]: 9.98 µM (≈ 25 µg/mL)
- MIC [23]: ≥ 51.1 µM
- MIC [24]: 25.5 µM (≈ 64 µg/mL)
- MIC (Streptococcus iniae): ≥ 51.1 µM

SMILES: CC[C@H](C)[C@H](NC(=O)[C@H](CCCN=C(N)N)NC(=O)[C@H](CC(C)C)NC(=O)[C@H](CCCN=C(N)N)NC(=O)[C@H](CC(C)C)NC(=O)[C@@H](N)CCCN=C(N)N)C(=O)NCC(=O)N[C@@H](CCCN=C(N)N)C(=O)N[C@@H](CCCN=C(N)N)C(N)=O [RLRLRIGRR]
- MIC [25]: ≥ 500 µM
- MIC [26]: ≥ 41.8 µM
- MIC [27]: ≥ 502 µM
- MIC [28]: 0.837 µM and 1.67 µM
- MIC (Pseudomonas aeruginosa): 669 µM (≈ 799 µg/mL)

SMILES: CC[C@H](C)[C@H](NC(=O)[C@H](C)NC(=O)[C@H](CCCNC(=N)N)NC(=O)CNC(=O)[C@H](C)NC(=O)[C@H](CCC(=O)O)NC(=O)CNC(=O)[C@H](CC(=O)O)NC(=O)[C@H](Cc1ccc(O)cc1)NC(=O)[C@H](Cc1ccccc1)NC(=O)CNC(=O)[C@H](CCCCN)NC(=O)[C@H](CCCNC(=N)N)NC(=O)[C@H](CC(C)C)NC(=O)[C@H](CO)NC(=O)[C@H](CO)NC(=O)[C@H](Cc1c[nH]c2ccccc12)NC(=O)[C@H](Cc1ccccc1)NC(=O)[C@H](CC(N)=O)NC(=O)[C@H](CCCCN)NC(=O)[C@H](Cc1c[nH]c2ccccc12)NC(=O)[C@H](C)NC(=O)CN)C(=O)N[C@@H](CCCNC(=N)N)C(=O)N[C@@H](CCCNC(=N)N)C(=O)O [GAWKNFWSSLRKGFYDGEAGRAIRR]
- MIC [29]: 0.4 µM (≈ 1.17 µg/mL)
- MIC [30]: 0.005 µM (≈ 0.0146 µg/mL)
- MIC [31]: 0.05 µM (≈ 0.146 µg/mL)
- MIC [32]: 0.4 µM (≈ 1.17 µg/mL)
- MIC [33]: 0.4 µM (≈ 1.17 µg/mL)
- MIC [34]: 0.05 µM (≈ 0.146 µg/mL)
- MIC [35]: 0.4 µM (≈ 1.17 µg/mL)
- MIC [36]: 0.4 µM (≈ 1.17 µg/mL)
- MIC [37]: 0.4 µM (≈ 1.17 µg/mL)
- MIC [38]: 0.4 µM (≈ 1.17 µg/mL)
- MIC [39]: 0.4 µM (≈ 1.17 µg/mL)

SMILES: CC(C)[C@H](NC(=O)[C@H](CCCCN)NC(=O)CNC(=O)CNC(=O)[C@H](CCC(N)=O)NC(=O)[C@H](CCCCN)NC(=O)CNC(=O)[C@H](CCCN=C(N)N)NC(=O)CNC(=O)[C@@H](N)CCCCN)C(=O)N[C@@H](CCCN=C(N)N)C(=O)N[C@@H](C)C(=O)N[C@@H](CCCCN)C(=O)N[C@@H](C)C(=O)O [KGRGKQGGKVRAKA]
- MIC [40]: > 88.8 µM
- MIC [41]: ≥ 44.4 µM
- MIC [42]: ≥ 88.8 µM
- MIC [43]: ≥ 44.4 µM
- MIC [44]: ≥ 88.8 µM
- MIC [45]: ≥ 88.8 µM
- MIC [46]: ≥ 88.8 µM
- MIC [47]: ≥ 88.8 µM
- MIC [48]: ≥ 88.8 µM
